Measurements from ChEMBL document CHEMBL1201862, “PubChem BioAssay data set” (2004).
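Grown in 96-well plates, cells were treated for 48 hours with each compound at five concentrations. Insufficient inhibition: endpoint recorded as highest concentration tested. GI50 marks 50% less growth.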 Activity calls are given as the source filed them. Rule as the data show it: active = GI50 up to about 1.1 µM and inactive = higher.

Key:
Test in all cases: inhibition of tumour cell growth, NCI panel, 48 h
[1] = test system: A498
[2] = test system: ACHN
[3] = test system: DU-145
[4] = test system: HOP-92
[5] = test system: Hs-578T
[6] = test system: LOX IMVI
[7] = test system: LXFL 529
[8] = test system: MDA-N
[9] = test system: NCI-H460
[10] = test system: OVCAR-3
[11] = test system: OVCAR-8
[12] = test system: PC-3
[13] = test system: SF-268
[14] = test system: SK-MEL-28
[15] = test system: SK-MEL-5
[16] = test system: SN12C
[17] = test system: SNB-75
[18] = test system: TK-10
[19] = test system: UACC-62
[20] = test system: UO-31

Row | SMILES | GI50 [1] | GI50 [2] | GI50 [3] | GI50 [4] | GI50 [5] | GI50 [6] | GI50 [7] | GI50 [8] | GI50 [9] | GI50 [10] | GI50 [11] | GI50 [12] | GI50 [13] | GI50 [14] | GI50 [15] | GI50 [16] | GI50 [17] | GI50 [18] | GI50 [19] | GI50 [20]
1 | CCOC(=O)N1CCc2cc(OC)c(OC)c3c2c1cc1cc(OC)c(OC)cc13 | 2.21 µM (inactive) | 4.11 µM (inactive) | 3.59 µM (inactive) | 3.8 µM (inactive) | 1.99 µM (inactive) | 2.28 µM (inactive) | 3.78 µM (inactive) | 0.127 µM (active) | 1.09 µM (active) | 0.984 µM (active) | 4.8 µM (inactive) | 1.54 µM (inactive) | 4.51 µM (inactive) | 4.19 µM (inactive) | 0.499 µM (active) | 4.62 µM (inactive) | 1.37 µM (inactive) | 7.98 µM (inactive) | 0.94 µM (active) | 11.1 µM (inactive)
2 | CCCCC/C=C1\CCC(CN2CCOCC2)C1=O (stereo not given) | 17.7 µM (inactive) | 15.5 µM (inactive) | 14.6 µM (inactive) | 15.7 µM (inactive) | 4.25 µM (inactive) | 4.84 µM (inactive) | 5.32 µM (inactive) | 8.24 µM (inactive) | 22.1 µM (inactive) | 5.9 µM (inactive) | 7.26 µM (inactive) | 16.9 µM (inactive) | 12.2 µM (inactive) | 7.91 µM (inactive) | 15.4 µM (inactive) | 15.2 µM (inactive) | 14.8 µM (inactive) | 7.59 µM (inactive) | 12.4 µM (inactive) | 12.4 µM (inactive)
3 | CN(C)CCNc1ccc2nnn3c4ccc(Cl)cc4c(=O)c1c23 | 2.8 µM (inactive) | 1.55 µM (inactive) | 5.22 µM (inactive) | 3.69 µM (inactive) | 3.3 µM (inactive) | 1.6 µM (inactive) | 3.23 µM (inactive) | 3.52 µM (inactive) | 2.48 µM (inactive) | 5.6 µM (inactive) | 1.7 µM (inactive) | 2.76 µM (inactive) | 3.4 µM (inactive) | 5.74 µM (inactive) | 2.94 µM (inactive) | 2.36 µM (inactive) | 3.01 µM (inactive) | 5 µM (inactive) | 4.89 µM (inactive) | 1.56 µM (inactive)
4 | CC(NC(=O)/C(C#N)=C/c1ccc2[nH]ccc2c1)c1ccccc1 (stereo not given) | 16.5 µM (inactive) | 21.6 µM (inactive) | 16.7 µM (inactive) | 14.5 µM (inactive) | 31.6 µM (inactive) | 16.4 µM (inactive) | 19.5 µM (inactive) | 16.2 µM (inactive) | 18.4 µM (inactive) | 24.9 µM (inactive) | 21.3 µM (inactive) | 20.3 µM (inactive) | 21.5 µM (inactive) | 19.8 µM (inactive) | 18.2 µM (inactive) | 18.7 µM (inactive) | 31.4 µM (inactive) | 17.9 µM (inactive) | 15.3 µM (inactive) | 14.7 µM (inactive)
5 | COC(COC(N)=O)C1=C(N2CC2)C(=O)C(C)=C(N2CC2)C1=O (stereo not given) [CARBOQUONE] | 0.0904 µM (active) | < 0.01 µM (active) | < 0.01 µM (active) | 0.219 µM (active) | 0.218 µM (active) | < 0.0144 µM (active) | 0.196 µM (active) | 0.108 µM (active) | < 0.01 µM (active) | 0.0607 µM (active) | 0.0318 µM (active) | 0.213 µM (active) | < 0.016 µM (active) | 0.172 µM (active) | 0.046 µM (active) | < 0.0266 µM (active) | 0.0246 µM (active) | 0.239 µM (active) | < 0.0156 µM (active) | 0.0307 µM (active)
